Test results published in PubChem BioAssay (NCI).
Where “and” joins values, the source holds several entries; their conditions need not be identical. Equal entries are not always repeated.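 Method: 48-hour compound exposure of cells in 96-well plates, five concentrations, linear interpolation of endpoints. GI50 = concentration required for 50% inhibition of growth. TGI denotes the concentration required for complete inhibition of growth.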

Experiments:
Test in all cases: NCI tumour cell line growth inhibition, 48 h
MCF7 breast = tested on: MCF7 breast
SNB-19 CNS = tested on: SNB-19 CNS
KM12 colon = tested on: KM12 colon
BT-549 breast = tested on: BT-549 breast
A498 renal = tested on: A498 renal
NCI/ADR-RES ovarian = tested on: NCI/ADR-RES ovarian
HL-60(TB) leukemia = tested on: HL-60(TB) leukemia
HOP-92 NSCLC = tested on: HOP-92 NSCLC
OVCAR-3 ovarian = tested on: OVCAR-3 ovarian
IGROV1 ovarian = tested on: IGROV1 ovarian
NCI-H226 lung = tested on: NCI-H226 lung
NCI-H23 lung = tested on: NCI-H23 lung
MOLT-4 leukemia = tested on: MOLT-4 leukemia
HCC-2998 colon = tested on: HCC-2998 colon
PC-3 prostate = tested on: PC-3 prostate
A549 NSCLC = tested on: A549 NSCLC
HCT-15 colon = tested on: HCT-15 colon
OVCAR-8 ovarian = tested on: OVCAR-8 ovarian
U251 CNS = tested on: U251 CNS
TK-10 renal = tested on: TK-10 renal
HT29 colon = tested on: HT29 colon
ACHN renal = tested on: ACHN renal
EKVX NSCLC = tested on: EKVX NSCLC
SK-OV-3 ovarian = tested on: SK-OV-3 ovarian
UACC-62 melanoma = tested on: UACC-62 melanoma
MALME-3M melanoma = tested on: MALME-3M melanoma
SR leukemia = tested on: SR leukemia
SK-MEL-5 melanoma = tested on: SK-MEL-5 melanoma
SF-295 CNS = tested on: SF-295 CNS
OVCAR-4 ovarian = tested on: OVCAR-4 ovarian
CCRF-CEM leukemia = tested on: CCRF-CEM leukemia
LOX IMVI melanoma = tested on: LOX IMVI melanoma
SK-MEL-2 melanoma = tested on: SK-MEL-2 melanoma
SF-539 CNS = tested on: SF-539 CNS
T-47D breast = tested on: T-47D breast
HOP-62 NSCLC = tested on: HOP-62 NSCLC
MDA-MB-231 breast = tested on: MDA-MB-231 breast
SNB-75 CNS = tested on: SNB-75 CNS
MDA-MB-435 = tested on: MDA-MB-435
CAKI-1 renal = tested on: CAKI-1 renal
HS 578T breast = tested on: HS 578T breast
786-0 renal = tested on: 786-0 renal
SN12C renal = tested on: SN12C renal
SW-620 colon = tested on: SW-620 colon
DU-145 prostate = tested on: DU-145 prostate
RPMI-8226 leukemia = tested on: RPMI-8226 leukemia
HCT-116 colon = tested on: HCT-116 colon
SF-268 CNS = tested on: SF-268 CNS
UO-31 renal = tested on: UO-31 renal
COLO 205 colon = tested on: COLO 205 colon
K-562 leukemia = tested on: K-562 leukemia
RXF 393 renal = tested on: RXF 393 renal
M14 melanoma = tested on: M14 melanoma
SK-MEL-28 melanoma = tested on: SK-MEL-28 melanoma
NCI-H460 lung = tested on: NCI-H460 lung
UACC-257 melanoma = tested on: UACC-257 melanoma
OVCAR-5 ovarian = tested on: OVCAR-5 ovarian
NCI-H522 lung = tested on: NCI-H522 lung

## CNC(=O)c1ccccc1Nc1nc(Nc2ccc3c(c2OC)CCC[C@H](N2CCN(CCO)CC2)C3)ncc1Cl
MCF7 breast
  GI50: 0.37 µM and 0.374 µM
  TGI: 11.2 µM and > 10 µM
SNB-19 CNS
  GI50: 2.85 µM and 6.49 µM
  TGI: 14.6 µM and > 10 µM
KM12 colon
  GI50: 3.04 µM and 3.23 µM
  TGI: 11.2 µM and > 10 µM
BT-549 breast
  GI50: 3.84 µM and 3.43 µM
  TGI: 16 µM and > 10 µM
A498 renal
  GI50: 1.38 µM and 2.22 µM
  TGI: 3.23 µM and 9.95 µM
NCI/ADR-RES ovarian
  GI50: 4.62 µM and 3.01 µM
  TGI: 17.9 µM and > 10 µM
HL-60(TB) leukemia
  GI50: 0.403 µM and 0.305 µM
  TGI: 2.04 µM and 2.38 µM
HOP-92 NSCLC
  GI50: 0.154 µM and 0.148 µM
  TGI: 1.64 µM and 0.863 µM
OVCAR-3 ovarian
  GI50: 6.74 µM and 3.18 µM
  TGI: 20.3 µM and > 10 µM
IGROV1 ovarian
  GI50: 1.02 µM and 0.801 µM
  TGI: 5.75 µM and 4.96 µM
NCI-H226 lung
  GI50: 7.65 µM and 2.57 µM
  TGI: 20.8 µM and > 10 µM
NCI-H23 lung
  GI50: 2.5 µM and 1.21 µM
  TGI: 15 µM and > 10 µM
MOLT-4 leukemia
  GI50: 2.45 µM and 2.82 µM
  TGI: 6.75 µM and > 10 µM
HCC-2998 colon
  GI50: 1.89 µM and 1.56 µM
  TGI: 11.5 µM and > 10 µM
PC-3 prostate
  GI50: 3.01 µM and 2.06 µM
  TGI: 15.5 µM and > 10 µM
A549 NSCLC
  GI50: 1.45 µM and 1.44 µM
  TGI: 10.2 µM and > 10 µM
HCT-15 colon
  GI50: 0.589 µM and 0.552 µM
  TGI: 6.32 µM and 5.69 µM
OVCAR-8 ovarian
  GI50: 4.73 µM and 3.25 µM
  TGI: 19.9 µM and > 10 µM
U251 CNS
  GI50: 2.43 µM and 2.27 µM
  TGI: 13.3 µM and > 10 µM
TK-10 renal
  GI50: 2.97 µM and 0.656 µM
  TGI: 18.2 µM and > 10 µM
HT29 colon
  GI50: 0.329 µM and 0.256 µM
  TGI: 10.5 µM and 1.27 µM
ACHN renal
  GI50: 1.16 µM and 1.43 µM
  TGI: 11.3 µM and > 10 µM
EKVX NSCLC
  GI50: 1.75 µM and 1.72 µM
  TGI: 13.7 µM and > 10 µM
SK-OV-3 ovarian
  GI50: 2.98 µM and 2.47 µM
  TGI: 14.4 µM and 9.23 µM
UACC-62 melanoma
  GI50: 1.58 µM and 1.35 µM
  TGI: 4.02 µM and 3.39 µM
MALME-3M melanoma
  GI50: 0.875 µM and 1.63 µM
  TGI: 3.09 µM and > 10 µM
SR leukemia
  GI50: 0.0449 µM and 0.128 µM
  TGI: 1.96 µM and 2.32 µM
SK-MEL-5 melanoma
  GI50: 1.74 µM and 1.64 µM
  TGI: 4.87 µM and 5.19 µM
SF-295 CNS
  GI50: 1.71 µM and 1.49 µM
  TGI: 3.79 µM and 3.42 µM
OVCAR-4 ovarian
  GI50: 1.72 µM and 3.45 µM
  TGI: 13.4 µM and > 10 µM
CCRF-CEM leukemia
  GI50: 2.95 µM and 2.97 µM
  TGI: 11 µM and > 10 µM
LOX IMVI melanoma
  GI50: 1.31 µM and 1.09 µM
  TGI: 2.77 µM and 2.48 µM
SK-MEL-2 melanoma
  GI50: 1.56 µM and 0.613 µM
  TGI: 5.9 µM and 2.7 µM
SF-539 CNS
  GI50: 1.95 µM and 4.38 µM
  TGI: 5.31 µM and > 10 µM
T-47D breast
  GI50: 2.34 µM and 2.95 µM
  TGI: 17.8 µM and > 10 µM
HOP-62 NSCLC
  GI50: 2.84 µM and 2.77 µM
  TGI: 16.8 µM and > 10 µM
MDA-MB-231 breast
  GI50: 1.34 µM and 1.62 µM
  TGI: 3.26 µM and 7.04 µM
SNB-75 CNS
  GI50: 1.88 µM and 2.49 µM
  TGI: 12.6 µM and > 10 µM
MDA-MB-435
  GI50: 1.33 µM and 0.901 µM
  TGI: 6.92 µM and > 10 µM
CAKI-1 renal
  GI50: 0.69 µM and 1.06 µM
  TGI: 13.1 µM and > 10 µM
HS 578T breast
  GI50: 2.13 µM and 2.4 µM
  TGI: 16.2 µM and > 10 µM
786-0 renal
  GI50: 1.48 µM and 1.44 µM
  TGI: 4.24 µM and 5.06 µM
SN12C renal
  GI50: 2.57 µM and 2.59 µM
  TGI: 13.3 µM and > 10 µM
SW-620 colon
  GI50: 0.863 µM and 0.669 µM
  TGI: 11.3 µM and > 10 µM
DU-145 prostate
  GI50: 1.17 µM and 0.888 µM
  TGI: 14.8 µM and > 10 µM
RPMI-8226 leukemia
  GI50: 1.8 µM and 2.95 µM
  TGI: 7.08 µM and > 10 µM
HCT-116 colon
  GI50: 1.3 µM and 1.05 µM
  TGI: 4.24 µM and 3.95 µM
SF-268 CNS
  GI50: 3.23 µM and 3.22 µM
  TGI: 16.5 µM and > 10 µM
UO-31 renal
  GI50: 1.38 µM and 0.714 µM
  TGI: 11.6 µM and 7.69 µM
COLO 205 colon
  GI50: 0.335 µM and 0.295 µM
  TGI: 2.2 µM and 1.6 µM
K-562 leukemia
  GI50: 2.25 µM and 2.51 µM
  TGI: 5.94 µM and 8.55 µM
RXF 393 renal
  GI50: 1.68 µM and 1.98 µM
  TGI: 7.3 µM and > 10 µM
M14 melanoma
  GI50: 1.02 µM and 0.51 µM
  TGI: 3.44 µM and 2.78 µM
SK-MEL-28 melanoma
  GI50: 1.39 µM and 1.73 µM
  TGI: 3.11 µM and 4.46 µM
NCI-H460 lung
  GI50: 0.892 µM and 0.574 µM
  TGI: 13.3 µM and > 10 µM
UACC-257 melanoma
  GI50: 1.52 µM and 1.29 µM
  TGI: 3.87 µM and 3.42 µM
OVCAR-5 ovarian
  GI50: 0.656 µM and 0.732 µM
  TGI: 15.5 µM and > 10 µM
NCI-H522 lung
  GI50: 1.89 µM and 1.12 µM
  TGI: 10.5 µM and 4.32 µM
